In the supplement of paper PMC4380931:
± gives the standard deviation of the averaged measurements.

Columns and labels:
[1] = tested on: WM115; test: apoptotic fraction of cells (caspase-3 NucView488 positive); higher = more apoptosis
Method: (§1)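 BRAF V600E/D melanoma cell lines were seeded in 96-well plates, treated in 4 replicates with seven doses (3.16 nM to 3.16 uM) of RAF/MEK inhibitors for 24, 48 or 72 h, and stained with Hoechst 33342 (nuclei) and DEVD-NucView488 caspase-3 substrate. Plates were imaged on an Operetta. Relative viability is the cell count normalised to a DMSO-treated control; apoptosis fraction is the fraction of NucView488-positive nuclei.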

[2] = tested on: K2; test: as above
Method: as §1

[3] = tested on: MMACSF; test: as above
Method: as §1

[4] = tested on: LOXIMVI; test: as above
Method: as §1

[5] = tested on: C32; test: relative viability (cell count relative to DMSO-treated control) (fraction of DMSO control); higher = more viable cells / less drug effect
Method: as §1

[6] = tested on: MZ7MEL; test: as above
Method: as §1

[7] = tested on: LOXIMVI; test: as above; details: 24 h
Method: as §1

CCCS(=O)(=O)Nc1ccc(F)c(C(=O)c2c[nH]c3ncc(Cl)cc23)c1F [PLX4720]
Details	apoptotic fraction of cells, [1]	apoptotic fraction of cells, [2]	apoptotic fraction of cells, [3]	apoptotic fraction of cells, [4]	relative viability, [5]	relative viability, [6]
24 h, 0.00316 µM	0.0488 ± 0.0085	0.00502 ± 0.0027	0.0449 ± 0.0057	0.0547 ± 0.0052	0.98 ± 0.043	1.02 ± 0.059
24 h, 0.01 µM	0.0373 ± 0.0083	0.00388 ± 0.0014	0.0443 ± 0.0007	0.0479 ± 0.022	1 ± 0.048	1.02 ± 0.13
24 h, 0.0316 µM	0.0513 ± 0.011	0.00353 ± 0.00034	0.0397 ± 0.0038	0.0396 ± 0.011	1.04 ± 0.047	1.14 ± 0.14
24 h, 0.1 µM	0.0369 ± 0.0047	0.00321 ± 0.00059	0.0422 ± 0.00099	0.0507 ± 0.004	1.01 ± 0.058	1.19 ± 0.086
24 h, 0.316 µM	0.0371 ± 0.004	0.00817 ± 0.0061	0.0417 ± 0.0096	0.033 ± 0.0064	0.942 ± 0.013	1.13 ± 0.087
24 h, 1 µM	0.0643 ± 0.0087	0.0503 ± 0.017	0.0492 ± 0.00081	0.0507 ± 0.0091	0.824 ± 0.018	0.956 ± 0.24
24 h, 3.16 µM	0.0673 ± 0.033	0.153 ± 0.021	0.0464 ± 0.011	0.0445 ± 0.014	0.693 ± 0.03	0.795 ± 0.12
48 h, 0.00316 µM	0.0421 ± 0.0077	0.00236 ± 0.0015	0.0462 ± 0.0015	0.111 ± 0.012	1.11 ± 0.052	1.04 ± 0.071
48 h, 0.01 µM	0.0454 ± 0.0042	0.00224 ± 0.0019	0.0457 ± 0.002	0.0809 ± 0.013	0.905 ± 0.27	0.99 ± 0.14
48 h, 0.0316 µM	0.0356 ± 0.0051	0.00201 ± 0.00093	0.0434 ± 0.0037	0.0585 ± 0.012	0.929 ± 0.17	1.02 ± 0.11
48 h, 0.1 µM	0.0312 ± 0.0062	0.00525 ± 0.0026	0.0443 ± 0.0054	0.0482 ± 0.0063	1.01 ± 0.11	1.09 ± 0.036
48 h, 0.316 µM	0.0333 ± 0.0034	0.0166 ± 0.0068	0.0469 ± 0.0041	0.0482 ± 0.0092	0.857 ± 0.11	0.931 ± 0.059
48 h, 1 µM	0.0466 ± 0.0042	0.0858 ± 0.016	0.0555 ± 0.0024	0.0654 ± 0.014	0.454 ± 0.1	0.608 ± 0.07
48 h, 3.16 µM	0.122 ± 0.013	0.173 ± 0.02	0.0933 ± 0.013	0.113 ± 0.0072	0.155 ± 0.029	0.48 ± 0.014
72 h, 0.00316 µM	0.0312 ± 0.0044	–	0.0394 ± 0.0019	0.211 ± 0.0062	0.957 ± 0.12	1.28 ± 0.2
72 h, 0.01 µM	0.0316 ± 0.0043	–	0.0424 ± 0.0031	0.144 ± 0.022	1.08 ± 0.086	1.16 ± 0.18
72 h, 0.0316 µM	0.0268 ± 0.0026	–	0.0386 ± 0.0055	0.074 ± 0.0098	1.1 ± 0.048	1.07 ± 0.16
72 h, 0.1 µM	0.0303 ± 0.0039	–	0.0346 ± 0.005	0.0395 ± 0.0051	0.937 ± 0.043	0.661 ± 0.035
72 h, 0.316 µM	0.0415 ± 0.0032	–	0.0549 ± 0.0041	0.048 ± 0.0076	0.516 ± 0.044	0.504 ± 0.11
72 h, 1 µM	0.129 ± 0.007	–	0.218 ± 0.014	0.0542 ± 0.0029	0.182 ± 0.03	0.382 ± 0.094
72 h, 3.16 µM	0.381 ± 0.009	–	0.534 ± 0.015	0.159 ± 0.084	0.0669 ± 0.021	0.329 ± 0.041

[7]
Details	relative viability
0.00316 µM	0.917 ± 0.1
0.01 µM	0.969 ± 0.2
0.0316 µM	1.03 ± 0.14
0.1 µM	1.1 ± 0.098
0.316 µM	1.05 ± 0.1
1 µM	1.04 ± 0.11
3.16 µM	0.913 ± 0.15

CCCS(=O)(=O)Nc1ccc(F)c(C(=O)c2c[nH]c3ncc(-c4ccc(Cl)cc4)cc23)c1F [Vemurafenib]
Details	apoptotic fraction of cells, [1]	apoptotic fraction of cells, [2]	apoptotic fraction of cells, [3]	apoptotic fraction of cells, [4]	relative viability, [5]	relative viability, [6]
24 h, 0.00316 µM	0.0555 ± 0.013	0.00416 ± 0.00064	0.0413 ± 0.0033	0.0511 ± 0.0072	0.987 ± 0.076	0.982 ± 0.1
24 h, 0.01 µM	0.0451 ± 0.015	0.00233 ± 0.00052	0.0384 ± 0.0042	0.0524 ± 0.011	0.995 ± 0.068	1.11 ± 0.24
24 h, 0.0316 µM	0.0561 ± 0.015	0.00265 ± 0.0012	0.0409 ± 0.003	0.0364 ± 0.0068	1.03 ± 0.048	1.08 ± 0.14
24 h, 0.1 µM	0.0385 ± 0.0038	0.00174 ± 0.00056	0.0412 ± 0.0049	0.0578 ± 0.005	0.985 ± 0.045	1.08 ± 0.08
24 h, 0.316 µM	0.0444 ± 0.014	0.00473 ± 0.0021	0.0459 ± 0.0063	0.0383 ± 0.0056	0.997 ± 0.068	1.15 ± 0.19
24 h, 1 µM	0.0572 ± 0.024	0.0444 ± 0.018	0.0484 ± 0.00084	0.0551 ± 0.0094	0.927 ± 0.1	1.1 ± 0.19
24 h, 3.16 µM	0.0792 ± 0.02	0.183 ± 0.023	0.0553 ± 0.0034	0.0557 ± 0.016	0.637 ± 0.026	0.938 ± 0.065
48 h, 0.00316 µM	0.0621 ± 0.0095	0.00306 ± 0.0014	0.0481 ± 0.0042	0.103 ± 0.023	1.07 ± 0.13	1.04 ± 0.094
48 h, 0.01 µM	0.0504 ± 0.016	0.00257 ± 0.0014	0.0447 ± 0.0016	0.0517 ± 0.004	0.901 ± 0.19	1.09 ± 0.082
48 h, 0.0316 µM	0.0424 ± 0.01	0.00173 ± 0.00032	0.0414 ± 0.0034	0.0505 ± 0.0036	0.891 ± 0.2	1.07 ± 0.065
48 h, 0.1 µM	0.0407 ± 0.0082	0.00229 ± 0.001	0.0439 ± 0.0023	0.0455 ± 0.0033	0.96 ± 0.13	1.07 ± 0.075
48 h, 0.316 µM	0.0303 ± 0.0054	0.0116 ± 0.0029	0.0499 ± 0.0057	0.0414 ± 0.0058	0.988 ± 0.12	0.955 ± 0.08
48 h, 1 µM	0.045 ± 0.0026	0.0823 ± 0.027	0.0573 ± 0.0045	0.0496 ± 0.0083	0.551 ± 0.094	0.667 ± 0.026
48 h, 3.16 µM	0.116 ± 0.035	0.237 ± 0.036	0.122 ± 0.025	0.0897 ± 0.0089	0.102 ± 0.018	0.54 ± 0.059
72 h, 0.00316 µM	0.0323 ± 0.0042	–	0.0401 ± 0.0045	0.191 ± 0.043	1.04 ± 0.13	1.29 ± 0.18
72 h, 0.01 µM	0.0325 ± 0.0046	–	0.0441 ± 0.0015	0.153 ± 0.17	1.07 ± 0.077	1.39 ± 0.1
72 h, 0.0316 µM	0.0317 ± 0.0037	–	0.0407 ± 0.0026	0.0537 ± 0.022	1.02 ± 0.036	1.19 ± 0.3
72 h, 0.1 µM	0.0278 ± 0.0037	–	0.0382 ± 0.0048	0.0438 ± 0.0045	0.875 ± 0.067	0.871 ± 0.2
72 h, 0.316 µM	0.0361 ± 0.0031	–	0.0493 ± 0.0083	0.0484 ± 0.0038	0.684 ± 0.05	0.587 ± 0.052
72 h, 1 µM	0.125 ± 0.019	–	0.265 ± 0.03	0.074 ± 0.0069	0.162 ± 0.035	0.367 ± 0.054
72 h, 3.16 µM	0.407 ± 0.05	–	0.692 ± 0.038	0.129 ± 0.0085	0.0274 ± 0.01	0.349 ± 0.066

[7]
Details	relative viability
0.00316 µM	0.969 ± 0.058
0.01 µM	0.94 ± 0.22
0.0316 µM	0.959 ± 0.17
0.1 µM	0.96 ± 0.13
0.316 µM	0.953 ± 0.11
1 µM	0.95 ± 0.11
3.16 µM	0.805 ± 0.1
